# Marks after values point to notes of the source that are not given here.
# What was measured:
# CYPC19 = molecular target: T1, CYPC19 (Homo sapiens, UniProt P33261); experiment: CYP inhibition in human hepatic microsomes or recombinant isoenzymes: CYPC19; type: in vitro ADME
# T1 construct: host or cells: human hepatic microsomes or human recombinant isoenzymes
# From the text: (§1) It is possible that in certain clinical trial subjects, such agents may need to be adjusted for dosing or replaced by alternative agents that are not metabolized by CYP2D6, particularly when such agents may have a low therapeutic index.
# VEGF-A = experiment: Patients with Kaposi Sarcoma: circulating serum and plasma VEGF-A levels; type: in vivo, human
# From the text: Assaying secreted cytokines characteristic for KS: To measure the effect of a Compound on KS, serum and plasma may be evaluated for levels of VEGF, VEGF-C, VEGF-D, VEGF-R1, VEGF-R2, VEGF165b, P1GF, IL-6, IL-8 and IL-10 at baseline (pre-dose of a Compound on Day 1) and mid-cycle (e.g., Day 15) of cycle 1, on Day 1 of all subsequent cycles, and at the end of the study. Depending on the results of these assays, other potential serum markers characteristic for KS may also be measured.
# [1] = tested on: soluble VEGF121 and VEGF165 isoforms; experiment: ELISA of soluble VEGF121/165 production in HeLa cells under hypoxia or normoxia; type: cell-based, human
# Method: Experimental Design. HeLa (human cervical carcinoma) cell cultures were established under normoxic conditions (21% oxygen). HeLa cells increase VEGF production 4- to 5-fold in response to hypoxia. […] At the completion of treatment, the conditioned media were collected and the VEGF protein levels were assayed in an enzyme-linked immunosorbent assay (ELISA) with primary antibodies that recognize the soluble VEGF121 and VEGF165 isoforms (R & D Systems, Minneapolis, Minn., USA). To ensure that decreases in VEGF concentration were not due to cytotoxicity, cultures were assayed using a standard assay ([…]-GLO® Luminescent Cell Viability Assay; Promega, Madison, Wis., USA) that measures total cellular adenosine triphosphate (ATP) concentrations as an indicator of cell viability.
# soluble VEGF isoforms = experiment: ELISA of soluble VEGF production in nontransformed keratinocytes under hypoxia or normoxia; type: cell-based, human; conditions: normoxic, 72 hours
# Method: (§2) Experimental Design. Nontransformed normal human keratinocyte cell cultures were established under normoxic conditions (21% oxygen). […] At the completion of treatment, cells were assessed for viability with an ATP assay and conditioned media were evaluated for VEGF protein levels by ELISA (as described in Section 9.1.1.1).
# CYP1A2 = molecular target: T2, CYP1A2 (Homo sapiens, UniProt P05177); experiment: CYP inhibition in human hepatic microsomes or recombinant isoenzymes: CYP1A2; type: in vitro ADME
# T2 construct: host or cells: human hepatic microsomes or human recombinant isoenzymes
# T2 sequence (P05177 whole entry): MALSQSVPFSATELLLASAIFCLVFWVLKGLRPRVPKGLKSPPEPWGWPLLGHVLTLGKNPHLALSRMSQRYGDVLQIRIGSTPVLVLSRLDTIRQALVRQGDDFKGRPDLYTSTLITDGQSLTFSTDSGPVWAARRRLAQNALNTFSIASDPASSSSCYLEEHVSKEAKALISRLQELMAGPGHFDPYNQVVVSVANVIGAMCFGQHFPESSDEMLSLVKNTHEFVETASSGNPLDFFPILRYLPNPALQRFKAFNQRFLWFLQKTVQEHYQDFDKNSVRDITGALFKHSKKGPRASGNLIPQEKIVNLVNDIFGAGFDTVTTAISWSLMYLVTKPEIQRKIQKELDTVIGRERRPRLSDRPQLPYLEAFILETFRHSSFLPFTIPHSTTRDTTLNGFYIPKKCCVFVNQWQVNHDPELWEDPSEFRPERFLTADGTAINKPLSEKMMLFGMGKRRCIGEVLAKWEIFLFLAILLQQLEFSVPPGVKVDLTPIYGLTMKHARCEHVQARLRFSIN
# From the text: as §1
# SY5Y xenografts = experiment: Tumor growth inhibition in subcutaneous SY5Y neuroblastoma xenografts; type: in vivo, athymic nude mice
# Method: Experimental Design. SY5Y cells are derived from a human neuroblastoma, a childhood tumor arising in neural crest cells. SY5Y cells (1×10^7 cells/mouse) were implanted subcutaneously in male athymic nude mice.
# Tumor size was measured by calipers at periodic intervals. When the average tumor size in a group exceeded 2000 mm^3, the mice in the group were sacrificed and excised tumors were assayed for intratumoral VEGF concentration as described in Section 9.1.1.1.
# HT1080 cells = experiment: Cell cycle analysis by propidium iodide flow cytometry in HT1080 cells (S-phase accumulation, Table 24); type: cell-based, human; conditions: HT1080, normoxic, 18 hours
# Method: Experimental Design. […] After treatment, cells were trypsinized, and stained with propidium iodide (PI) dye to measure DNA content of individual cells by flow cytometry. Output comprised histograms showing relative DNA content in 10,000 cells.
# While compounds which cause greater than 20% of the cells to accumulate in S-phase at 100 nM are considered active, a larger percentage of cells may be accumulated in S-phase at lower doses depending on the Compound, as shown in FIG. 12 for example.
# [2] = tested on: SKNEP orthotopic xenografts; experiment: Orthotopic SKNEP Ewing sarcoma tumor model (kidney capsule), tumor weight; type: in vivo; conditions: 5 weeks of treatment
# From the text: (§3) Experimental Design. In orthotopic tumor models, human tumor cells are implanted into the mouse in an organ that corresponds to the location from which the tumors arise. Such models may provide a better predictor of clinical efficacy than injection of tumors into the flanks of nude mice. See Hoffman, Invest. New Drugs 1999, 17(4):343-59. SY5Y neuroblastoma or SKNEP Ewing sarcoma tumor cells (1×10^6 cells/mouse) were implanted into the kidney capsule of female athymic nude mice according to published methods. See Huang et al., Proc. Natl. Acad. Sci. USA 2003, 100(13):7785-90. One week after implantation of each type of tumor, mice were divided into 2 groups and were administered a test Compound as shown in Table 21.
# (§4) After 5 weeks of treatment, the mice were sacrificed, and the weights of the tumors were assessed.
# [3] = 28-day oral toxicity study in dogs with 15-day recovery
# Method: The L23 vehicle was used. […] All studies in the toxicology program were conducted according to GLP regulations.
# [4] = 28-day oral toxicity study in rats with 14-day recovery; type: in vivo
# Method: A battery of genotoxicity studies was also performed. […] The L23 vehicle was used.
# Exposures were maximal at 120 mg/kg/day.
# [5] = tested on: normal human keratinocyte; experiment: ATP viability assay in keratinocytes; type: cell-based; conditions: any concentration tested
# Method: as §2
# [6] = tested on: SY5Y orthotopic xenografts; experiment: Orthotopic SY5Y neuroblastoma tumor model (kidney capsule), tumor weight; type: in vivo; conditions: 5 weeks of treatment
# From the text: as §3, §4
# [7] = tested on: VEGF secreting cell lines; experiment: Cell cycle effects in several VEGF secreting human tumor cell lines (PI flow cytometry, Table 25); type: cell-based; conditions: all of the tested tumor types; 10 nM or 100 nM, 18 hours
# Method: Experimental Design. Several VEGF secreting cell lines were assayed for cell cycle effects. […] At the completion of treatment, cells were harvested and cellular DNA content was analyzed via PI staining and flow cytometry (as described in Section 9.3.1.1).
# CYP2D6 = molecular target: T3, CYP2D6 (Homo sapiens, UniProt P10635); experiment: CYP inhibition in human hepatic microsomes or recombinant isoenzymes: CYP2D6; type: in vitro ADME
# T3 construct: host or cells: human hepatic microsomes or human recombinant isoenzymes
# T3 sequence (P10635 whole entry): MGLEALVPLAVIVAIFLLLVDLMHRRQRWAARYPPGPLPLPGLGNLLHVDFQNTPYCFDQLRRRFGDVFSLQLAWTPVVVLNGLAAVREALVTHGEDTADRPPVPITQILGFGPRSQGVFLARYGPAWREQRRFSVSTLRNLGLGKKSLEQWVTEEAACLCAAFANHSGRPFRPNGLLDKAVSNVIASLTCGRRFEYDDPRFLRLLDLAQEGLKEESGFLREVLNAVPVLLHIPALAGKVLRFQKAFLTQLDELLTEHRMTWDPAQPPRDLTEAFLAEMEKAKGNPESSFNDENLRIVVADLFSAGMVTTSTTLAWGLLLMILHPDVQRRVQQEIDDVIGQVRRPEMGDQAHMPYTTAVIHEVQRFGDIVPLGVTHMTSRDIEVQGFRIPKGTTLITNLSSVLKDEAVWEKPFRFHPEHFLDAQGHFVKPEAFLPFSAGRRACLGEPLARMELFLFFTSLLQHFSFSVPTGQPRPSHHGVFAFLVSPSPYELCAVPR
# From the text: as §1
# [8] = In vitro plasma protein binding of 14C-radiolabeled Compound #10; type: in vitro ADME, mice, rats, dogs, monkeys, and humans; conditions: 0.05 to 50 μg/mL
# CYP2C9 = molecular target: T4, CYP2C9 (Homo sapiens, UniProt P11712); experiment: CYP inhibition in human hepatic microsomes or recombinant isoenzymes: CYP2C9; type: in vitro ADME
# T4 construct: host or cells: human hepatic microsomes or human recombinant isoenzymes
# T4 sequence (P11712 whole entry): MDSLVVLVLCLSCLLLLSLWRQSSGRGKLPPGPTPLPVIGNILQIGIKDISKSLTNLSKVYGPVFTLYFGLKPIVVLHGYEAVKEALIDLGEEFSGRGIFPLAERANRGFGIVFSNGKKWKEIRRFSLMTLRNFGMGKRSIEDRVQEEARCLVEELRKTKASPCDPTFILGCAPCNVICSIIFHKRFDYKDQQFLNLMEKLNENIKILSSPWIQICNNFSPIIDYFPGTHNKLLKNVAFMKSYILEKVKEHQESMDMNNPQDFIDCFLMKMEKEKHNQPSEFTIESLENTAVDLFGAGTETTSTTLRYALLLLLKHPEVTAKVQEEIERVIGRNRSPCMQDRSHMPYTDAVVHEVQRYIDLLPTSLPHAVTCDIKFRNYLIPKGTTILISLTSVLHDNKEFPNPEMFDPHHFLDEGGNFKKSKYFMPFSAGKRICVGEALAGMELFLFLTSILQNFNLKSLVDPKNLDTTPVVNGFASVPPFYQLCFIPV
# From the text: as §1
# T1 sequence (P33261 whole entry): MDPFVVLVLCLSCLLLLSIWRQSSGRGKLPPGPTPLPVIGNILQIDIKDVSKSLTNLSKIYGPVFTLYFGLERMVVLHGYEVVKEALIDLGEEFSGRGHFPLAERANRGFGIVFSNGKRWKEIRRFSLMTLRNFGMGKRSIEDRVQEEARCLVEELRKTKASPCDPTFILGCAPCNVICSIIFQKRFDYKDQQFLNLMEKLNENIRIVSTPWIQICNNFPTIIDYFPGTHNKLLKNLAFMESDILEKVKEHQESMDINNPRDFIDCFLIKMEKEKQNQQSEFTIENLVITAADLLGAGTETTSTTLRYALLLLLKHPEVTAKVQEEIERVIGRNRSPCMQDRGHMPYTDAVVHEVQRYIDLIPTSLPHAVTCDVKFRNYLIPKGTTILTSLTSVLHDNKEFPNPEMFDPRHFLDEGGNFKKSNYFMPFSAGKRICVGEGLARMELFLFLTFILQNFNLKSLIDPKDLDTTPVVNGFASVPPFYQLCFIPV
smiles,measurement,setting,value
COc1ccc(C2c3[nH]c4ccc(Cl)cc4c3CCN2C(=O)Oc2ccc(Cl)cc2)cc1 (racemic) [Compound #10],inhibition of CYPC19 (in words),CYPC19,No meaningful inhibition
same,circulating serum VEGF-A levels (in words),VEGF-A; patients (FIG. 35A),dose responsive reduction
same,circulating plasma VEGF-A levels (in words),VEGF-A; patients (FIG. 35B),dose responsive reduction
same,decrease in VEGF concentrations in conditioned media,"[1]; normoxic, 48 hours",39%
same,inhibition of VEGF production (in words),[1]; stress (hypoxia)-induced VEGF,inhibit stress-induced VEGF production
same,decrease in VEGF concentrations in conditioned media,soluble VEGF isoforms,21%
same,inhibition of CYP1A2 (in words),CYP1A2,No meaningful inhibition
same,Mean % Inhibition of Intratumoral VEGF vs Vehicle at Sacrifice,"SY5Y xenografts; 50 mg/kg QD, 250 mg/kg per week (Table 18), oral 5 days per week",96* %
same,mean tumor size (in words),SY5Y xenografts; through 15-days of dosing,essentially eliminated any increase in mean tumor size
same,concentration from which an accumulation of cells in S phase can be observed,HT1080 cells,≥ 1 nM
same,"cell cycle distribution, DNA content (in words)","HT1080 cells; Compound #10 0.3 nM to 100 nM, Compound 1205 10 nM",induced a redistribution of the cycling characteristics of the cell population
same,tumor growth (tumor weight) (in words),[2],completely prevented growth
same,dose at which maximal exposures occurred,"[3]; dogs, 5, 15, and 30 mg/kg/dose BID, 28 days",30 mg/kg/dose BID
same,clinical tolerability,"[3]; dogs, low- and mid-dose levels (5, 15 mg/kg/dose BID), 28 days",clinically well tolerated
same,NOAEL for 28-days,"[3]; dogs, oral capsules",15 mg/kg/dose BID
same,mean PT and aPTT,"[4]; 40 and 120 mg/kg/day, males but not females, 28-day study",reversible increases
same,NOAEL at 28 days,"[4]; both sexes, Sprague Dawley, rat, in vivo, rats, oral gavage",12 mg/kg/day
same,dose at which exposures were maximal,"[4]; rats, 12, 40, and 120 mg/kg/day, 28 days",120 mg/kg/day
same,"toxicity (viability, ATP assay)",[5],No toxicity was observed
same,tumor growth (tumor weight) (in words),[6],completely prevented growth
same,cell cycle delay versus inhibition of VEGF production (in words),[7],coincident with the inhibition of VEGF production
same,inhibition of CYP2D6 isoenzyme (in words),CYP2D6,inhibits the activity
same,concentration dependence of protein binding (in words),[8],independent of concentration
same,inhibition of CYP2C9 (in words),CYP2C9,No meaningful inhibition

# — patent US8697662B2, “Methods for treating Kaposi sarcoma” (PTC Therapeutics, Inc., priority 2009, dated 2014)
